Results from PubChem BioAssay (NCI).
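Test compounds were applied to cells in 96-well plates for 48 hours at 5 doses. At the GI50, growth is halved. TGI is the concentration that stops growth completely.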

Columns and labels:
Assay in all cases: NCI anticancer screen, dose series, 48 h
UACC-257 melanoma = tested on: UACC-257 melanoma
HL-60(TB) leukemia = tested on: HL-60(TB) leukemia
CAKI-1 renal = tested on: CAKI-1 renal
MALME-3M melanoma = tested on: MALME-3M melanoma
HCT-15 colon = tested on: HCT-15 colon
M14 melanoma = tested on: M14 melanoma
UO-31 renal = tested on: UO-31 renal
T-47D breast = tested on: T-47D breast
NCI-H23 lung = tested on: NCI-H23 lung
HOP-62 NSCLC = tested on: HOP-62 NSCLC
SR leukemia = tested on: SR leukemia
SNB-19 CNS = tested on: SNB-19 CNS
CCRF-CEM leukemia = tested on: CCRF-CEM leukemia
SK-MEL-2 melanoma = tested on: SK-MEL-2 melanoma
KM12 colon = tested on: KM12 colon
SF-295 CNS = tested on: SF-295 CNS
SF-539 CNS = tested on: SF-539 CNS
SK-MEL-5 melanoma = tested on: SK-MEL-5 melanoma
RXF 393 renal = tested on: RXF 393 renal
PC-3 prostate = tested on: PC-3 prostate
TK-10 renal = tested on: TK-10 renal
SNB-75 CNS = tested on: SNB-75 CNS
SN12C renal = tested on: SN12C renal
SK-OV-3 ovarian = tested on: SK-OV-3 ovarian
DU-145 prostate = tested on: DU-145 prostate
LOX IMVI melanoma = tested on: LOX IMVI melanoma
RPMI-8226 leukemia = tested on: RPMI-8226 leukemia
U251 CNS = tested on: U251 CNS
786-0 renal = tested on: 786-0 renal
A549 NSCLC = tested on: A549 NSCLC
A498 renal = tested on: A498 renal
COLO 205 colon = tested on: COLO 205 colon
HCC-2998 colon = tested on: HCC-2998 colon
MDA-MB-468 breast = tested on: MDA-MB-468 breast
MOLT-4 leukemia = tested on: MOLT-4 leukemia
HCT-116 colon = tested on: HCT-116 colon
SK-MEL-28 melanoma = tested on: SK-MEL-28 melanoma
OVCAR-4 ovarian = tested on: OVCAR-4 ovarian
NCI-H522 lung = tested on: NCI-H522 lung
MDA-MB-231 breast = tested on: MDA-MB-231 breast
OVCAR-3 ovarian = tested on: OVCAR-3 ovarian
SF-268 CNS = tested on: SF-268 CNS
OVCAR-5 ovarian = tested on: OVCAR-5 ovarian
HS 578T breast = tested on: HS 578T breast
NCI-H460 lung = tested on: NCI-H460 lung
BT-549 breast = tested on: BT-549 breast
EKVX NSCLC = tested on: EKVX NSCLC
MDA-MB-435 = tested on: MDA-MB-435
IGROV1 ovarian = tested on: IGROV1 ovarian
SW-620 colon = tested on: SW-620 colon
OVCAR-8 ovarian = tested on: OVCAR-8 ovarian
K-562 leukemia = tested on: K-562 leukemia
HT29 colon = tested on: HT29 colon
MCF7 breast = tested on: MCF7 breast

`COC[C@@H](CC(C)C)N=C1N/C(=C\c2ccc3ncsc3c2)C(=O)N1C` was tested, and the GI50 (UACC-257 melanoma) was 2.81 µM, the TGI (UACC-257 melanoma) was > 100 µM and the GI50 (HL-60(TB) leukemia) was 2.55 µM. For the same compound, the TGI (HL-60(TB) leukemia) was 8.29 µM, the GI50 (CAKI-1 renal) was 1.73 µM and the TGI (CAKI-1 renal) was > 100 µM. The GI50 (MALME-3M melanoma) was 2.36 µM, the TGI (MALME-3M melanoma) was 8.53 µM and the GI50 (HCT-15 colon) was 2.01 µM. For the same compound, the TGI (HCT-15 colon) was > 100 µM, the GI50 (M14 melanoma) was 4.11 µM and the TGI (M14 melanoma) was > 100 µM. For the same compound, the GI50 (UO-31 renal) was 1.87 µM, the TGI (UO-31 renal) was 7.21 µM and the GI50 (T-47D breast) was 2.01 µM. For the same compound, the TGI (T-47D breast) was > 100 µM, the GI50 (NCI-H23 lung) was 2.02 µM and the TGI (NCI-H23 lung) was 14.2 µM. It also gave a GI50 (HOP-62 NSCLC) of 2.23 µM, a TGI (HOP-62 NSCLC) of 8.86 µM and a GI50 (SR leukemia) of 2.17 µM. The TGI (SR leukemia) was 24.9 µM, the GI50 (SNB-19 CNS) was 0.999 µM and the TGI (SNB-19 CNS) was > 100 µM. The GI50 (CCRF-CEM leukemia) was 2.55 µM, the TGI (CCRF-CEM leukemia) was 18.6 µM and the GI50 (SK-MEL-2 melanoma) was 1.53 µM. For the same compound, the TGI (SK-MEL-2 melanoma) was 3.77 µM, the GI50 (KM12 colon) was 2.36 µM and the TGI (KM12 colon) was > 100 µM. For the same compound, the GI50 (SF-295 CNS) was 3.25 µM, the TGI (SF-295 CNS) was > 100 µM and the GI50 (SF-539 CNS) was 0.958 µM. For the same compound, the TGI (SF-539 CNS) was 7.12 µM, the GI50 (SK-MEL-5 melanoma) was 1.77 µM and the TGI (SK-MEL-5 melanoma) was 4.62 µM. It also gave a GI50 (RXF 393 renal) of 2.18 µM, a TGI (RXF 393 renal) of 6.85 µM and a GI50 (PC-3 prostate) of 4.24 µM. The TGI (PC-3 prostate) was > 100 µM, the GI50 (TK-10 renal) was 3.8 µM and the TGI (TK-10 renal) was > 100 µM. The GI50 (SNB-75 CNS) was 0.0476 µM, the TGI (SNB-75 CNS) was 4.84 µM and the GI50 (SN12C renal) was 3 µM. The TGI (SN12C renal) was > 100 µM, the GI50 (SK-OV-3 ovarian) was 1.96 µM and the TGI (SK-OV-3 ovarian) was 9.82 µM. The GI50 (DU-145 prostate) was 3.22 µM, the TGI (DU-145 prostate) was > 100 µM and the GI50 (LOX IMVI melanoma) was 2.34 µM. For the same compound, the TGI (LOX IMVI melanoma) was > 100 µM, the GI50 (RPMI-8226 leukemia) was 2.7 µM and the TGI (RPMI-8226 leukemia) was 12.3 µM. The GI50 (U251 CNS) was 2.35 µM, the TGI (U251 CNS) was > 100 µM and the GI50 (786-0 renal) was 3.48 µM. For the same compound, the TGI (786-0 renal) was > 100 µM, the GI50 (A549 NSCLC) was 2.05 µM and the TGI (A549 NSCLC) was > 100 µM. The GI50 (A498 renal) was 1.2 µM, the TGI (A498 renal) was 4.97 µM and the GI50 (COLO 205 colon) was 1.97 µM. It also gave a TGI (COLO 205 colon) of 7.26 µM, a GI50 (HCC-2998 colon) of 2.67 µM and a TGI (HCC-2998 colon) of 18.6 µM. The GI50 (MDA-MB-468 breast) was 0.999 µM, the TGI (MDA-MB-468 breast) was 6.09 µM and the GI50 (MOLT-4 leukemia) was 2.8 µM. For the same compound, the TGI (MOLT-4 leukemia) was > 100 µM, the GI50 (HCT-116 colon) was 1.22 µM and the TGI (HCT-116 colon) was > 100 µM. It also gave a GI50 (SK-MEL-28 melanoma) of 2.93 µM, a TGI (SK-MEL-28 melanoma) of 8.72 µM and a GI50 (OVCAR-4 ovarian) of 4.29 µM. For the same compound, the TGI (OVCAR-4 ovarian) was > 100 µM, the GI50 (NCI-H522 lung) was 1.34 µM and the TGI (NCI-H522 lung) was 6.03 µM. The GI50 (MDA-MB-231 breast) was 3.9 µM, the TGI (MDA-MB-231 breast) was > 100 µM and the GI50 (OVCAR-3 ovarian) was 1.23 µM. The TGI (OVCAR-3 ovarian) was 5.31 µM, the GI50 (SF-268 CNS) was 2.85 µM and the TGI (SF-268 CNS) was > 100 µM. For the same compound, the GI50 (OVCAR-5 ovarian) was 4.15 µM, the TGI (OVCAR-5 ovarian) was > 100 µM and the GI50 (HS 578T breast) was 2.03 µM. For the same compound, the TGI (HS 578T breast) was 9.14 µM, the GI50 (NCI-H460 lung) was 2.61 µM and the TGI (NCI-H460 lung) was > 100 µM. For the same compound, the GI50 (BT-549 breast) was 2.01 µM, the TGI (BT-549 breast) was 9.51 µM and the GI50 (EKVX NSCLC) was 3.06 µM. For the same compound, the TGI (EKVX NSCLC) was > 100 µM, the GI50 (MDA-MB-435) was 3.72 µM and the TGI (MDA-MB-435) was > 100 µM. The GI50 (IGROV1 ovarian) was 2.26 µM, the TGI (IGROV1 ovarian) was > 100 µM and the GI50 (SW-620 colon) was 1.54 µM. The TGI (SW-620 colon) was > 100 µM, the GI50 (OVCAR-8 ovarian) was 2.65 µM and the TGI (OVCAR-8 ovarian) was > 100 µM. The GI50 (K-562 leukemia) was 1.76 µM, the TGI (K-562 leukemia) was > 100 µM and the GI50 (HT29 colon) was 3.27 µM. The TGI (HT29 colon) was 16.2 µM, the GI50 (MCF7 breast) was 2.57 µM and the TGI (MCF7 breast) was 22.2 µM.
